Results from US20260200942A1, “PARP7 INHIBITORS AND THEIR APPLICATIONS” (CHONGQING PHARSCIN INNOBIO CO., LTD., priority 2023, published 2026).

Tests used:
[1] = Liver microsomal stability study, rat; type: in vitro ADME; conditions: Rat liver microsomes
Description: (§1) The above compounds were diluted to a 1.5 μM intermediate working solution with 0.1 M potassium phosphate buffer containing 0.75 mg/mL liver microsomes, and then 30 μL of the intermediate working solution was dispensed into reaction plates for different time points (0, 5, 15, 30, 45, 60 min). 150 μL of methanol solution containing internal standard was added to the 0 min plate wells. For the other time points (5, 15, 30, 45, 60 min), the sample plates were pre-incubated at 37° C. for 5 min, after which the reaction was initiated with 15 μL of 6 mM NADPH solution and timing was started. 15 μL of 6 mM NADPH solution was added to the 0 min samples to balance the system. At 5 min, 15 min, 30 min, 45 min, and 60 min, respectively, 150 μL of methanol solution containing internal standard was added to the reaction wells to terminate the reaction. After the reaction was complete, the plates were shaken on a shaker at 600 rpm for 10 min, then centrifuged at 4000 rpm for 15 min. 80 μL of supernatant from each well was transferred to a 96-well sample plate containing 150 μL of ultrapure water, mixed, and then analyzed by LC/MS to calculate T1/2.

[2] = Liver microsomal stability study, mouse; type: in vitro ADME; conditions: Mouse liver microsomes
Description: as §1

[3] = biological target: T1, PARP7 (Homo sapiens, UniProt Q7Z3E1); experiment: PARP7 inhibitory activity assay (histone-coated 384-well plate, chemiluminescence); type: biochemical
T1 construct: purchased BPS 80527
T1 sequence (Q7Z3E1 1-657): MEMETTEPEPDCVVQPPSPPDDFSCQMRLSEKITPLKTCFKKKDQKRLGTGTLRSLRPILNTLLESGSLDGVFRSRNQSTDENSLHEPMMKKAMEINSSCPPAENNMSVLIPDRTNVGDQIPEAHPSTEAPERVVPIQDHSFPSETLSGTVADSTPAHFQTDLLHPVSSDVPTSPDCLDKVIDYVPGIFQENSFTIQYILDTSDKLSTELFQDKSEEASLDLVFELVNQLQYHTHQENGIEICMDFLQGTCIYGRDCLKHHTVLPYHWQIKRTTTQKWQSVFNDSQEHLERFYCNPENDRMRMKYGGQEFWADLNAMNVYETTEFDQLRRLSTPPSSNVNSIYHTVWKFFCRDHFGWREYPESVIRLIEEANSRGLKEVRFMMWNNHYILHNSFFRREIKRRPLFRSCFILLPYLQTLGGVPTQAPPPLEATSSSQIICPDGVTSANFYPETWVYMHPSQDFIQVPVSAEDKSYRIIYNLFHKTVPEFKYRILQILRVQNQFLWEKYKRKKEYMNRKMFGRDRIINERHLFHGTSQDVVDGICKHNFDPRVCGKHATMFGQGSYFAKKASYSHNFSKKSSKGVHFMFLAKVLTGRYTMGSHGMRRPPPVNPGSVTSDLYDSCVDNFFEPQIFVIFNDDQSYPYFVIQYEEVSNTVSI
Excerpt: Inhibition rate (%) calculation formula: […]

[4] = biological target: T2, PARP2 (Homo sapiens, UniProt Q9UGN5); experiment: PARP2 inhibitory activity assay (BPS PARP2 Chemiluminescent Activity Assay Kit); type: biochemical
T2 construct: purchased BPS Bioscience
Excerpt: The PARP2 enzyme activity assay method used in the present disclosure employs reagents from the PARP2 Chemiluminescent Activity Assay Kit from BPS Bioscience, USA. […] The test results are shown in Table 1. /” indicates not tested.

[5] = Liver microsomal stability study, human; type: in vitro ADME; conditions: Human liver microsomes
Description: as §1

[6] = Mouse pharmacokinetic study; type: in vivo; conditions: BALB/c mice; for AUC(0-t) / Cmax / Tmax / half-life: female, mouse, plasma
Excerpt: • (1) Study design: Female healthy Balb/c mice (specific pathogen-free (SPF) grade) were used as test animals, divided into 2 dose groups with 3 mice in each group, for single intravenous injection and single oral gavage administration, respectively. The vehicle formulations were […] (DMSO)+10% Solutol+85% Saline and 0.5% methylcellulose (MC), respectively. • (2) Plasma sample collection and processing: Blood was collected from the orbital venous plexus of the mice. After intravenous (IV) bolus administration, samples were collected at 0.083 h, 0.25 h, 0.5 h, 1 h, 2 h, 4 h, 8 h, and 24 h. After oral (PO) administration, samples were collected at 0.25 h, 0.5 h, 1 h, 2 h, 4 h, 6 h, 8 h, and 24 h. An appropriate volume of whole blood samples was collected with EDTA-K2 anticoagulation, placed on wet ice after collection, and plasma was separated by centrifugation within 30 min (centrifugation conditions: 4000 rpm, 10 minutes, 2-8° C.). The collected plasma samples were stored in a −70° C. freezer before analysis. After analysis, the remaining plasma samples continued to be stored in a −70° C. freezer. • (3) Analytical batch processing and pharmacokinetic parameter calculation: The concentration of the test substance in the plasma samples was determined. The accuracy of quality control samples was evaluated concurrently with the analysis of the samples, with the requirement that more than 66.7% of the quality control samples have an accuracy between 80-120%. Using the plasma concentration data at different time points, pharmacokinetic parameters such as C0 (IV), Area Under the Curve (AUC)(0-t), T1/2, Cmax, Tmax, and Mean Residence Time (MRT) were calculated using WinNonlin.

T2 sequence (Q9UGN5 whole entry): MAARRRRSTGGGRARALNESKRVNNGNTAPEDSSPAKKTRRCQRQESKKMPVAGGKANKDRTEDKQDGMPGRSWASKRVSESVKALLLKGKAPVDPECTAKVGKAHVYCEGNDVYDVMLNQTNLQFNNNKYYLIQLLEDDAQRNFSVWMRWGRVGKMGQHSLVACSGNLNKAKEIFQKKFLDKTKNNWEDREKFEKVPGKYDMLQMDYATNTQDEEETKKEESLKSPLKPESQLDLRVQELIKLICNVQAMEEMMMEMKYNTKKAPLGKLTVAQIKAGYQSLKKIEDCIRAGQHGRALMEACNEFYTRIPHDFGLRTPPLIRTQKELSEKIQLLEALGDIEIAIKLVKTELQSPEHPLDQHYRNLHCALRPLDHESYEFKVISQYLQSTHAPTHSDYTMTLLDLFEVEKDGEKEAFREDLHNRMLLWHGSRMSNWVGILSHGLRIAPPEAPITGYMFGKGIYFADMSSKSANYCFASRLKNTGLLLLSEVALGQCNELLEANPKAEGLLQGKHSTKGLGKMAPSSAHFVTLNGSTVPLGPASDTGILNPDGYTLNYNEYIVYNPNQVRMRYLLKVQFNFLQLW

| SMILES | half-life at 1 µM [1] [min] | half-life at 1 µM [2] [min] | IC50 [3] [nM] | IC50 [4] [nM] | half-life at 1 µM [5] [min] | F ([6]; PO, 10 mg/kg, 0.5% MC) [%] | AUC(0-t) ([6]; IV, 1 mg/kg) [ng·h/mL] | Cmax ([6]; IV, 1 mg/kg) [ng/mL] | Tmax ([6]; IV, 1 mg/kg) [min] | half-life ([6]; IV, 1 mg/kg) [min] | AUC(0-t) ([6]; PO, 10 mg/kg, 0.5% MC) [ng·h/mL] | Cmax ([6]; PO, 10 mg/kg, 0.5% MC) [ng/mL] | Tmax ([6]; PO, 10 mg/kg, 0.5% MC) [min] | half-life ([6]; PO, 10 mg/kg, 0.5% MC) [min] |
| --- | --- | --- | --- | --- | --- | --- | --- | --- | --- | --- | --- | --- | --- | --- |
| CC(=O)Nc1cc(C(F)(F)F)cnc1N1CCN(C(=O)[C@H]2C[C@H](NC(C)(C)c3cc(C(F)(F)F)c(=O)[nH]n3)C2)CC1 [Embodiment 61, N-(2-(4-((1R,3R)-3-((2-(6-oxo-5-(trifluoromethyl)-1,6-dihydropyridazin-3-yl)propan-2-yl)amino)cyclobutane-1-carbonyl)piperazin-1-yl)-5-(trifluoromethyl)pyridin-3-yl)acetamide] | > 60 | > 60 | < 10 | 100 to 1000 | > 60 | – | – | – | – | – | – | – | – | – |
| O=C(C1CN(Cc2cc(C(F)(F)F)c(=O)[nH]n2)C1)N1CCN(c2ncc(C(F)(F)F)cn2)CC1 [Embodiment 5, 4-(trifluoromethyl)-6-((3-(4-(5-(trifluoromethyl)pyrimidin-2-yl)piperazine-1-carbonyl)azetidin-1-yl)methyl)pyridazin-3(2H)-one] | > 60 | > 60 | 10 to 100 | – | > 60 | 66.00 | 7900 | 4210 | 4.8 | 76.8 | 52100 | 22000 | 19.8 | 58.8 |
| CC(=O)Nc1cc(C(F)(F)F)cnc1N1CCN(C(=O)[C@H]2C[C@H](NCc3cc(C(F)(F)F)c(=O)[nH]n3)C2)CC1 [Embodiment 63, N-(2-(4-((1R,3R)-3-(((6-oxo-5-(trifluoromethyl)-1,6-dihydropyridazin-3-yl)methyl)amino)cyclobutane-1-carbonyl)piperazin-1-yl)-5-(trifluoromethyl)pyridin-3-yl)acetamide] | > 60 | > 60 | < 10 | 100 to 1000 | > 60 | – | – | – | – | – | – | – | – | – |
| O=c1[nH]nc(CN[C@H]2C[C@H](C(=O)N3CCN(c4ncc(C(F)(F)F)cn4)CC3)C2)cc1C(F)(F)F [Embodiment 12] | > 60 | > 60 | 10 to 100 | – | > 60 | 59.45 | 1790 | 1200 | 4.8 | 53.4 | 10700 | 7060 | 15 | 48.6 |
